Structures are written as SMILES.

One test deals with T1, S. aureus TrmD (Staphylococcus aureus, UniProt Q2FZ43).
T1 construct: made in house; host or cells: E. coli BL21
T1 sequence (Q2FZ43 1-245): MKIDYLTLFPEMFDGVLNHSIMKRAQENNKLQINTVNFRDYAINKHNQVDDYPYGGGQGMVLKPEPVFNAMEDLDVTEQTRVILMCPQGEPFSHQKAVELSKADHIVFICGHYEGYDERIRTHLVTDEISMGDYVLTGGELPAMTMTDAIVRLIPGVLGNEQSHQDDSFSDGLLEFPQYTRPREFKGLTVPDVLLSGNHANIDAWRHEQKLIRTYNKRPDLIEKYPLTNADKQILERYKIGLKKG
In words: nanoSAR direct-to-biology FP displacement screening of crude triazoles. It is filed as binding. The conditions noted are these: crude triazole at 1 μM, assuming full conversion; 500 nM TrmD, 10 nM tracer 4. From the text: Next, we conducted an S. aureus TrmD-targeting nanoSAR study. For this, alkyne 7 was reacted on a 96 nmol scale with an in-house diversity-oriented azide library (N = 320, mean pairwise Tanimoto similarity = 0.11) designed to cover a large chemical fragment space, generating a panel of 320 crude triazoles ready for FP assay investigation. The composition of the azide library is designed to be chemically diverse in several categories, including physicochemical properties such as polar surface area, lipophilicity, and the number of hydrogen bond donors and acceptors, as well as structural features like the number of aromatic rings (Figure S23). A complete list of chemical structures included in the azide library can be found in Table S4. In situ reaction conditions for CuAAC were adapted from Gehrtz et al., utilizing CuSO4, which is reduced in situ to Cu(I) by sodium ascorbate and stabilized by TBTA. Degassed water and DMSO (1:1) were used as solvents to prevent the oxidation from Cu(I) to Cu(II). For the synthesis of the triazole library, a master mix was prepared, containing all reaction components except the azides. All reactions were started by the addition of the respective azide in 24 μL at a final product concentration of 4 mM (96 nmol). Reaction mixtures were incubated for 16 h at room temperature and under an argon atmosphere in sealed 96-well plates.
For FP assay screening, we used 500 nM of S. aureus TrmD and 10 nM of tracer 4 in a total volume of 40 μL in 96-well plates. We performed control measurements and defined 10 nM of tracer 4 in buffer as 100% displacement and the DMSO control as 0% tracer displacement. […] The results of the FP screening were visualized in a waterfall plot and plate-based heatmaps (Figure , Figure S3).
Fluorescence polarization (FP) assays were performed as follows. The assays for H. influenzae TrmD have been described previously. All assays were conducted in technical triplicate using black 96-well half area plates. For the FP assays, a tracer (20 nM Cy5TPD for E. coli and H. influenzae TrmD, 10 nM tracer 4 for S. aureus TrmD) was mixed with the respective enzyme (2 μM E. coli TrmD, 2 μM H. influenzae TrmD, 500 nM S. aureus TrmD) in buffer (E. coli and H. influenzae TrmD: 50 mM HEPES, 500 mM NaCl, 5% Glycerol, pH 7.5, S. aureus TrmD: 40 mM Tris HCl, 100 mM NaCl, 10 mM MgCl2, 5% Glycerol, pH 7.5). The compounds were added in varying concentrations for K D-value determination. […] The Z-factor for tracer 4 was determined by measuring 48 replicates of the free tracer (positive controls, PC) and 48 replicates of a mixture of enzyme and tracer (negative controls, NC). The Z-factor is defined in terms of the means (μ) and standard deviations (σ) of the positive and negative controls and calculated as Z = 1–(3*(σnc + σpc)/(μnc–μpc)). […] Polarization values (mP) were determined from polarization-specific parallel and orthogonal fluorescence intensities. K D-values were calculated in GraphPad Prism 8.0.1 using the four-parameter Hill equation: y(% tracer bound) = bottom + ([ligand]-slope) × (top–bottom)/([ligand]-slope + K Dslope).
A commercial azide diversity library (Enamine) containing 320 azides at a concentration of 100 mM in DMSO in a 96-well tube rack was employed for this nanoSAR study. For the reaction of the azides with alkyne 7 via CuAAC, a master mix was prepared. […] The solvents were degassed with argon to avoid oxidation of the copper(I) during the reaction. To each well of a 96-well PCR plate (Applied Biosystems MicroAmp) were added 23 μL of the master mix and 1 μL of the 100 mM azide stock. The final concentrations in the Mastermix were: 8.7 mM sodium ascorbate (8.3 mM in reaction well), 1.1 mM TBTA (1.0 mM in reaction well), 4.3 mM 7 (4.1 mM in reaction well), 1.3 mM CuSO4×5 H2O (1.2 mM in reaction well).
In the case of `C[C@@H](CN)n1cc(-c2c[nH]c3nc[nH]c(=O)c23)nn1` [Compound 03H12, O=C1NC=NC2=C1C(C3=CN([C@H](CN)C)N=N3)=CN2], the “% displaced tracer” value is reported as 20%.

Staying with this test, now noted: crude triazole at 1 μM, assuming full conversion; 500 nM TrmD, 10 nM tracer 4; read-out: % displaced tracer.
On to `O=C(c1ncon1)n1cc(-c2c[nH]c3nc[nH]c(=O)c23)nn1` [Compound 02E12, O=C(N1N=NC(C=2C=3C(=O)NC=NC3NC2)=C1)C4=NOC=N4], for which the inhibition at 1 µM was found to be 1.83%.

For the molecule `CS(=O)(=O)c1cc(Cn2cc(-c3c[nH]c4nc[nH]c(=O)c34)nn2)cc(C(F)(F)F)c1` [Compound 03A01, S(=O)(=O)(c1cc(cc(c1)CN2N=NC(C=3C=4C(=O)NC=NC4NC3)=C2)C(F)(F)F)C], the inhibition at 1 µM was found to be 63%.

For the molecule `O=c1[nH]cnc2[nH]cc(-c3cn(Cc4cnc(C(F)(F)F)s4)nn3)c12` [Compound 01F06, S1C(=NC=C1CN2N=NC(C=3C=4C(=O)NC=NC4NC3)=C2)C(F)(F)F], the inhibition at 1 µM came to 72%.

As for `NCCCCCCn1cc(-c2c[nH]c3nc[nH]c(=O)c23)nn1` [Compound 03H09, O=C1NC=NC=2NC=C(C=3N=NN(C3)CCCCCC[NH3+])C12], the inhibition at 1 µM turned out to be 50%.

For `O=c1[nH]cnc2[nH]cc(-c3cn(Cc4ccc5c(c4)OCO5)nn3)c12` [Compound 03C03, O=C1NC=NC=2NC=C(C=3N=NN(C3)Cc4cc5OCOc5cc4)C12], the inhibition at 1 µM was determined as 70%.

Take `O=C(NCCCn1cc(-c2c[nH]c3nc[nH]c(=O)c23)nn1)c1c[nH]nn1` [Compound 02B11, O=C1NC=NC=2NC=C(C=3N=NN(C3)CCCNC(=O)C=4N=NNC4)C12]: the inhibition at 1 µM came to 10%.

With `Cn1nncc1-n1cc(-c2c[nH]c3nc[nH]c(=O)c23)nn1` [Compound 04B02, O=C1NC=NC=2NC=C(C=3N=NN(C=4N(N=NC4)C)C3)C12], the inhibition at 1 µM worked out at 63%.

With `COC1([C@H](CO)n2cc(-c3c[nH]c4nc[nH]c(=O)c34)nn2)CCC1` [Compound 02C06, O=C1NC=NC=2NC=C(C=3N=NN(C3)[C@H](C4(OC)CCC4)CO)C12], the inhibition at 1 µM is 5%.

As to `COC(=O)c1cccc2nc(Cn3cc(-c4c[nH]c5nc[nH]c(=O)c45)nn3)cn12` [Compound 03F06, O=C(OC)C=1N2C(=NC(=C2)CN3N=NC(C=4C=5C(=O)NC=NC5NC4)=C3)C=CC1], the inhibition at 1 µM came to 26%.

For the molecule `COC(=O)c1coc(Cn2cc(-c3c[nH]c4nc[nH]c(=O)c34)nn2)n1` [Compound 03C08, O=C(OC)C=1N=C(OC1)CN2N=NC(C=3C=4C(=O)NC=NC4NC3)=C2], the inhibition at 1 µM came to 40%.

Consider `NC(=O)[C@@H](c1ccc(F)cc1)n1cc(-c2c[nH]c3nc[nH]c(=O)c23)nn1` [Compound 03B07, Fc1ccc(cc1)[C@@H](N2N=NC(C=3C=4C(=O)NC=NC4NC3)=C2)C(=O)N], for which the inhibition at 1 µM came to 16%.

As to `CC(C)(C)O[C@H]1C[C@@H](n2cc(-c3c[nH]c4nc[nH]c(=O)c34)nn2)C1` [Compound 02F01, O=C1NC=NC=2NC=C(C=3N=NN(C3)[C@@H]4C[C@H](OC(C)(C)C)C4)C12], the inhibition at 1 µM was 21%.

With `O=c1[nH]cnc2[nH]cc(-c3cn([C@@H]4CCc5cc(Cl)ccc54)nn3)c12` [Compound 01C03, Clc1cc2c(cc1)[C@H](N3N=NC(C=4C=5C(=O)NC=NC5NC4)=C3)CC2], the inhibition at 1 µM came to 72%.

On to `CC(C)CSCCCn1cc(-c2c[nH]c3nc[nH]c(=O)c23)nn1` [Compound 02A03, S(CC(C)C)CCCN1N=NC(C=2C=3C(=O)NC=NC3NC2)=C1], for which the inhibition at 1 µM came to 35%.

In the case of `O=c1[nH]cnc2[nH]cc(-c3cn(CCCCCO)nn3)c12` [Compound 02B01, O=C1NC=NC=2NC=C(C=3N=NN(C3)CCCCCO)C12], the inhibition at 1 µM worked out at 27%.

`CS(=O)(=O)NCCn1cc(-c2c[nH]c3nc[nH]c(=O)c23)nn1` [Compound 01F03, S(=O)(=O)(NCCN1N=NC(C=2C=3C(=O)NC=NC3NC2)=C1)C]: the inhibition at 1 µM was 62%.

On to `O=c1[nH]cnc2[nH]cc(-c3cn(-c4cccc5cnccc45)nn3)c12` [Compound 01D05, O=C1NC=NC=2NC=C(C=3N=NN(c4c5c(cncc5)ccc4)C3)C12], for which the inhibition at 1 µM was found to be 16%.

As to `COc1ccc(-n2cc(-c3c[nH]c4nc[nH]c(=O)c34)nn2)cc1OC` [Compound 01E06, O=C1NC=NC=2NC=C(C=3N=NN(c4cc(OC)c(OC)cc4)C3)C12], the inhibition at 1 µM stood at 19%.

`Cc1nc2cc(-n3cc(-c4c[nH]c5nc[nH]c(=O)c45)nn3)ccc2s1` [Compound 01H06, S1c2c(N=C1C)cc(N3N=NC(C=4C=5C(=O)NC=NC5NC4)=C3)cc2]: the inhibition at 1 µM amounted to 26%.

In the case of `O=c1[nH]cnc2[nH]cc(-c3cn(-c4ccc(CO)cc4)nn3)c12` [Compound 04B03, O=C1NC=NC=2NC=C(C=3N=NN(c4ccc(cc4)CO)C3)C12], the inhibition at 1 µM turned out to be 47%.

For `O=c1[nH]cnc2[nH]cc(-c3cn(C[C@@H]4C[C@@H]4C(F)(F)F)nn3)c12` [Compound 03E06, FC(F)(F)[C@@H]1[C@H](CN2N=NC(C=3C=4C(=O)NC=NC4NC3)=C2)C1], the inhibition at 1 µM stood at 34%.

In the case of `O=c1[nH]cnc2[nH]cc(-c3cn(-c4ccc(CCO)cc4)nn3)c12` [Compound 02G03, O=C1NC=NC=2NC=C(C=3N=NN(c4ccc(cc4)CCO)C3)C12], the inhibition at 1 µM amounted to 15%.

As to `O=c1[nH]cnc2[nH]cc(-c3cn(-c4cccc5cn[nH]c45)nn3)c12` [Compound 02A05, O=C1NC=NC=2NC=C(C=3N=NN(c4c5NN=Cc5ccc4)C3)C12], the inhibition at 1 µM is 1.22%.

Regarding `COC(=O)c1cc(-n2cc(-c3c[nH]c4nc[nH]c(=O)c34)nn2)ccn1` [Compound 03F03, O=C(OC)c1nccc(N2N=NC(C=3C=4C(=O)NC=NC4NC3)=C2)c1], the inhibition at 1 µM stood at 10%.

As for `O=c1[nH]cnc2[nH]cc(-c3cn(Cc4ccc(F)cc4F)nn3)c12` [Compound 02H03, Fc1c(ccc(F)c1)CN2N=NC(C=3C=4C(=O)NC=NC4NC3)=C2], the inhibition at 1 µM came out at 49%.

For `O=c1[nH]cnc2[nH]cc(-c3cn(-c4cccc5ncccc45)nn3)c12` [Compound 03B01, O=C1NC=NC=2NC=C(C=3N=NN(c4c5c(nccc5)ccc4)C3)C12], the inhibition at 1 µM was 20%.

In the case of `COc1ccnc(-n2cc(-c3c[nH]c4nc[nH]c(=O)c34)nn2)n1` [Compound 02A01, O=C1NC=NC=2NC=C(C=3N=NN(c4nc(OC)ccn4)C3)C12], the inhibition at 1 µM is 19%.

`O=c1[nH]cnc2[nH]cc(-c3cn(C[C@H](O)C(F)(F)F)nn3)c12` [Compound 03D12, FC(F)(F)[C@@H](O)CN1N=NC(C=2C=3C(=O)NC=NC3NC2)=C1]: the inhibition at 1 µM is 71%.

As to `CC(C)(C)Cn1cc(-c2c[nH]c3nc[nH]c(=O)c23)nn1` [Compound 04A03, O=C1NC=NC=2NC=C(C=3N=NN(C3)CC(C)(C)C)C12], the inhibition at 1 µM was 19%.

On to `Nc1ccc(Cl)c(-n2cc(-c3c[nH]c4nc[nH]c(=O)c34)nn2)c1` [Compound 02E08, Clc1c(N2N=NC(C=3C=4C(=O)NC=NC4NC3)=C2)cc(N)cc1], for which the inhibition at 1 µM amounted to 13%.

For the molecule `O=C(Cn1cc(-c2c[nH]c3nc[nH]c(=O)c23)nn1)NCc1ccccc1` [Compound 03A03, O=C1NC=NC=2NC=C(C=3N=NN(C3)CC(=O)NCc4ccccc4)C12], the inhibition at 1 µM stood at 36%.

These data come from PMC12751012, “Nanoscale Direct-to-Biology Optimization and Structural Insights into Selective S. aureus TrmD Inhibitors” (Journal of Medicinal Chemistry, 2025).
